What follows are molecules tested against T1, Autotaxin enzyme (ATX) (Homo sapiens, UniProt Q13822) (assay: In vitro ATX assay (enzymatic ATX inhibition, LPC 14:0 substrate, choline oxidase/HRP absorbance readout)). Settings: 0.3 mM LPC 14:0, 37° C., 4 hours, absorbance 555 nm.
T1 construct: purchased Echelon Biosciences, Inc. E-4000
Assay type: biochemical
Protocol: • Assay buffer: 100 mM Tris-HCl, pH 9.0, 500 mM NaCl, 5 mM MgCl2, 30 μM CoCl2, 0.05% Triton X-100 • Assay buffer II: 4.5 mM 4-AAP, 2.7 mM TOOS, 21.2 U/mL HRP, 3 U/mL CO, In 50 mM Tris-HCl pH 8.0, 4.5 mM MgCl2
A compound preparation plate (Nunc 249944) was prepared by adding 30 mM stock solution (in DMSO) of test compound and performing a serial full-log dilution down to 30 nM. Two μL/well were transferred from the first compound prep plate to a compound dilution plate (Corning, 3641) and 198 μL assay buffer I was added for a […].
A 10 ng/mL solution of ATX was prepared by diluting in assay buffer I, and 80 μL/well were added to the assay plate (Corning, 3641); negative control wells contained 80 μL/well assay buffer I only (no ATX). Ten μL/well from the compound dilution plate (containing serially diluted test compound or DMSO) were added to the assay plate, which was then incubated at 37° C. for 15 minutes. A solution of LPC 14:0 was prepared in assay buffer I at 3 mM and 10 μl/well were added to the assay plate, for a final concentration of 0.3 mM LPC, and returned to 37° C. incubator for 4 hours. After 4 hour incubation, 100 μL/well of assay buffer II was added to all wells of the assay plate. The plate was incubated at RT for 15 minutes, prior to reading on FlexStation in absorbance mode, 555 nm. Results in the enzymatic ATX inhibition assay are provided for compounds of formula (I). An IC50 value of “A” is less than 100 nM, “B” is equal to or greater than 100 nM but less than 1 μM, “C” is equal to or greater than 1 μM.

Compound	IC50
O=C(c1cnc(N[C@H]2Cc3ccc(Cl)cc3C2)nc1)N1CCC12COC2 [Example 130, (S)-(2-((5-Chloro-2,3-dihydro-1H-inden-2-yl)amino)pyrimidin-5-yl)(6-oxa-1-azaspiro[3.3]heptan-1-yl)methanone]	100 to 1000 nM
CC1CC(C)N1C(=O)c1cnc(NCc2cc(OC(F)(F)F)cc(C3CC3)c2)nc1 (single isomer, unassigned) [Example 119, (2-((3-Cyclopropyl-5-(trifluoromethoxy)-benzyl)amino)pyrimidin-5-yl)(2,4-dimethylazetidin-1-yl)methanone]	≥ 1000 nM
O=C(c1cnc(NCc2cc(OC(F)(F)F)cc(C3CC3)c2)nc1)N1CC(F)(F)C1 [Example 86, (2-((3-cyclopropyl-5-(trifluoromethoxy)benzyl)ami-no)pyrimidin-5-yl)(3,3-difluroazetidin-1-yl)-methanone]	100 to 1000 nM
Cc1cc2c(cc1C)CC(Nc1ncc(C(=O)N3CCC34COC4)cn1)C2 [Example 128, (2-((5,6-Dimethyl-2,3-dihydro-1H-inden-2-yl)amino)pyrimidin-5-yl)(6-oxa-1-azaspiro[3.3]heptan-1-yl)methanone]	≥ 1000 nM
NC(=O)c1cc(CNc2ncc(C(=O)N3CCC34COC4)cn2)cc(OC(F)(F)F)c1 [Example 140, 3-(((5-(6-Oxa-1-azaspiro[3.3]heptane-1-carbonyl)pyrimidin-2-yl)amino)methyl)-5-(trifluoromethoxy)benzamide]	≥ 1000 nM
O=C(c1cnc(NC2Cc3cc(Br)c(Br)cc3C2)nc1)N1CCC12COC2 [Example 127, (2-((5,6-Dibromo-2,3-dihydro-1H-inden-2-yl)amino)pyrimidin-5-yl)(6-oxa-1-azaspiro[3.3]heptan-1-yl)methanone]	100 to 1000 nM
CS(=O)(=O)c1ccc2c(c1)CC(Nc1ncc(C(=O)N3CCC34COC4)cn1)C2 (stereo not drawn) [Example 138, (2-((5-(Methylsulfonyl)-2,3-dihydro-1H-inden-2-yl)amino)pyrimidin-5-yl)(6-oxa-1-azaspiro[3.3]heptan-1-yl)methanone]	≥ 1000 nM
COc1cc(CNc2ncc(C(=O)N3CCC34COC4)cn2)cc(OC(F)(F)F)c1 [Example 30]	100 to 1000 nM
O=C(c1cnc(NCc2cc(OC(F)(F)F)cc(C3CC3)c2)nc1)N1CCc2cccnc21 [Example 90, (2-((3-cyclopropyl-5-(trifluoromethoxy)benzyl)ami-no)pyrimidin-5-yl)(2,3-dihydro-1H-pyrrolo[2,3-b]pyridin-1-yl)methanone]	100 to 1000 nM
O=C(c1cnc(NCc2ccc(Cl)c(Cl)c2)nc1)N1CCC12COC2 [Example 51]	≥ 1000 nM
COc1ccc2c(c1)CC(Nc1ncc(C(=O)N3CCC34COC4)cn1)C2 (stereo not drawn) [Example 32]	100 to 1000 nM
O=C(c1cnc(NCc2cc(OC(F)(F)F)cc(C3CC3)c2)nc1)N1CC2(CCS2(=O)=O)C1 [Example 102, (2-((3-cyclopropyl-5-(trifluoromethoxy)benzyl)ami-no)pyrimidin-5-yl)(1,1-dioxido-1-thia-6-azaspiro[3.3]heptan-6-y)methanone]	100 to 1000 nM
CC(C)c1cc(CNc2ncc(C(=O)N3CCCCC3)cn2)cc(OC(F)(F)F)c1 [Example 22]	100 to 1000 nM
N#Cc1cccc(CNc2ncc(C(=O)N3CCC34COC4)cn2)c1 [Example 14]	≥ 1000 nM
CC1CCN1C(=O)c1cnc(NCc2cc(OC(F)(F)F)cc(C(C)(C)C)c2)nc1 (stereo not drawn) [Example 5]	100 to 1000 nM

Continued, values first:

IC50	Compound
< 100 nM	COC[C@H]1CCN1C(=O)c1cnc(NCc2cc(OC(F)(F)F)cc(C3CC3)c2)nc1 [Example 103, (R)-(2-((3-cyclopropyl-5-(trifluoromethoxy)benzyl)ami-no)pyrimidin-5-yl)(2-(methoxymethyl)azetidin-1-yl)methanone]
100 to 1000 nM	CN(C)C1CN(C(=O)c2cnc(NCc3cc(OC(F)(F)F)cc(C4CC4)c3)nc2)C1 [Example 110, (2-((3-cyclopropyl-5-(trifluoromethoxy)benzyl)ami-no)pyrimidin-5-yl)(3-(dimethylamino)azetidin-1-yl)methanone]
< 100 nM	O=C(c1cnc(NCc2cc(OC(F)(F)F)cc(C3CC3)c2)nc1)N1CCC12COC2 [Example 80, (2-((3-cyclopropyl-5-(trifluoromethoxy)benzyl)ami-no)pyrimidin-5-yl)(6-oxa-1-azaspiro[3.3]heptan-1-yl)-methanone]
< 100 nM	COC1CN(C(=O)c2cnc(NCc3cc(OC(F)(F)F)cc(C4CC4)c3)nc2)C1 [Example 109, (2-((3-cyclopropyl-5-(trifluoromethoxy)benzyl)ami-no)pyrimidin-5-yl)(3-methoxyazetidin-1-yl)-methanone]
< 100 nM	CC(C)(O)C1CCN1C(=O)c1cnc(NCc2cc(OC(F)(F)F)cc(C3CC3)c2)nc1 (stereo not drawn) [Example 115, (2-((3-cyclopropyl-5-(trifluoromethoxy)benzyl)ami-no)pyrimidin-5-yl)(2-(2-hydroxypropan-2-yl)azetidin-1-yl)methanone]
100 to 1000 nM	O=C(c1cnc(NC2Cc3ccccc3C2)nc1)N1CCC12COC2 [Example 7]
100 to 1000 nM	O=C(c1cnc(NCc2cccc(OC(F)(F)F)c2)cn1)N1CCC12COC2 [Example 71, 6-Oxa-1-azaspiro[3.3]heptan-1-yl(5-((3-(trifluoromethoxy)benzyl)|amino)pyrazin-2-yl)methanone]
< 100 nM	O=C(c1cnc(N[C@@H]2Cc3ccc(Cl)cc3C2)nc1)N1CCC12COC2 [Example 129, (R)-(2-((5-Chloro-2,3-dihydro-1H-inden-2-yl)amino)pyrimidin-5-yl)(6-oxa-1-azaspiro[3.3]heptan-1-yl)methanone]
< 100 nM	CC(C)(C)OC(=O)N1CC2(CCN2C(=O)c2cnc(NCc3cc(OC(F)(F)F)cc(C4CC4)c3)nc2)C1 [Example 92, tert-butyl 1-(2-((3-cyclopropyl-5-(trifluoro-methoxy)benzyl)amino)py-rimidine-5-carbonyl)-1,6-diazaspiro[3.3]heptane-6-carboxylate]
< 100 nM	CC(C)(O)C1CCN1C(=O)c1cnc(NC2Cc3ccc(Cl)cc3C2)nc1 (stereo not drawn) [Example 60]
< 100 nM	CC(=O)N1CC2(CCN2C(=O)c2cnc(NC3Cc4ccc(Cl)cc4C3)nc2)C1 (stereo not drawn) [Example 154, 1-(1-(2-((5-Chloro-2,3-dihydro-1H-inden-2-yl)amino)pyrimidine-5-carbonyl)-1,6-diazaspiro[3.3]heptan-6-yl)ethanone]
< 100 nM	O=C(c1cnc(NCc2cc(OC(F)(F)F)cc(C3CC3)c2)nc1)N1CCC12CCOC2 (single isomer, unassigned) [Example 117, (2-((3-Cyclopropyl-5-(trifluoromethoxy)-benzyl)amino)pyrimidin-5-yl)(6-oxa-1-azaspiro[3.4]octan-1-yl) methanone]
< 100 nM	O=C(c1cnc(NCc2cc(OC(F)(F)F)cc(C3CC3)c2)nc1)N1CC(F)C1 [Example 85, (2-((3-cyclopropyl-5-(trifluoromethoxy)benzyl)ami-no)pyrimidin-5-yl)(3-fluoroazetidin-1-yl)-methanone]
< 100 nM	CN1CCC2(CC1)CCN2C(=O)c1cnc(NCc2cc(OC(F)(F)F)cc(C3CC3)c2)nc1 [Example 112, (2-((3-cyclopropyl-5-(trifluoromethoxy)benzyl)ami-no)pyrimidin-5-yl)(7-methyl-1,7-diazaspiro[3.5]nonan-1-yl)methanone]
< 100 nM	O=C(c1cnc(NCc2cc(OC(F)(F)F)cc(C3CCC3)c2)nc1)N1CCC12COC2 [Example 23]
< 100 nM	CC(C)c1cc(CNc2ncc(C(=O)N3CCC3C)cn2)cc(OC(F)(F)F)c1 (single isomer, unassigned) [Example 70, (2-((3-Isopropyl-5-(trifluoromethoxy)benzyl)amino)pyrimidin-5-yl)(2-methylazetidin-1-yl)methanone]
< 100 nM	CC(C)Oc1cc(CNc2ncc(C(=O)N3CCC3C(C)(C)O)cn2)cc(OC(C)C)c1 (stereo not drawn) [Example 58]
< 100 nM	CC(C)(O)C1CCN1C(=O)c1cnc(NCc2cc(OC(F)(F)F)cc(N3CCC3)c2)nc1 (stereo not drawn) [Example 68]
< 100 nM	O=C(c1cnc(NCc2cc(OC(F)(F)F)cc(C3CC3)c2)nc1)N1CCCC12COC2 [Example 96, (2-((3-cyclopropyl-5-(trifluoromethoxy)benzyl)ami-no)pyrimidin-5-yl)(2-oxa-5-azaspiro[3.4]octan-5-yl)methanone]
< 100 nM	O=C(c1cnc(NCc2cc(OC(F)(F)F)cc(C3CC3)c2)nc1)N1CCC12CCOCC2 [Example 101, (2-((3-cyclopropyl-5-(trifluoromethoxy)benzyl)ami-no)pyrimidin-5-yl)(7-oxa-1-azaspiro[3.5]nonan-1-yl)methanone]
< 100 nM	O=C(c1cnc(NCc2cc(OC(F)(F)F)cc(C3CC3)c2)nc1)N1CCC12CN(CC(F)F)C2 [Example 149, (2-((3-Cyclopropyl-5-(trifluoromethoxy)benzyl)amino)pyrimidin-5-yl) (6-(2,2-difluoroethyl)-1,6-diazaspiro[3.3]heptan-1-yl)methanone]

From patent US20210363152A1, “AMINOAZINE AMIDES” (Hoffmann-La Roche Inc., priority 2018, published 2021)
